# According to patent US20260207626A1, “SYNTHETIC TRITERPENOIDS AND COMPOSITIONS THEREOF IN WEIGHT MANAGEMENT, SKELETAL MUSCLE FUNCTION, AND APPETITE SUPPRESSION” (The Board of Regents of the University of Texas System, priority 2022, published 2026):
# Entries after “also recorded” stand apart in the source; their conditions may differ.
# Columns and labels:
# THP-1 macrophages = test: Bio-Plex Pro human 17-plex cytokine/chemokine panel in THP-1 macrophages exposed to CDDO-EA and LPS; assay type: cell-based
# Procedure: THP-1 monocytes were plated in 24-well plate at 15×10^4 cells/0.5 ml/well in growth medium plus 100 ng/ml PMA into each well and cultured at 37° C. with 5% CO2 incubator for 48 h for differentiation to macrophages. […] Supernatants were collected and stored at −80° C. until analysis. Cytokines and chemokines were measured and quantified using a Bio-Plex Pro human cytokines group I, 17-plex ELISA Kit (Bio-Rad) according to the manufacturer's instructions.
# IκB-α (Ser32) = test: Western blot of LPS-induced IκB-α phosphorylation in L6-GLUT4myc myotubes; assay type: cell-based, rat; settings: 500 nM CDDO-EA 1 hr then 100 ng/ml LPS 1 hr
# Source text: To examine the anti-inflammatory properties of CDDO-EA in skeletal muscle cells, CDDO-EA was examined for its effect on nuclear factor-kappa B (NF-κB) activity in L6-GLUT4myc muscle cells, in the context of LPS-mediated inflammatory responses in L6-GLUT4myc muscle cells. All experiments were independently repeated one to four times and done in duplicate or triplicate, and data were statistically analyzed by One-Way ANOVA or unpaired t-test, two tailed.
# Cells were studied with vehicle alone [0.125% dimethyl sulfoxide (DMSO)] and LPS with and without CDDO-EA. […]
# Western blotting and subcellular fractionation: L6-GLUT4myc myoblasts (4×10^4 cells/ml, 2 ml/well) were seeded onto 6-well dishes and differentiated with differentiation medium for 7 days. […] Protein concentrations were determined using the Pierce BCA Protein Assay (Thermo Fisher Scientific), and equal amounts of protein were separated by electrophoresis and subsequently transferred to nitrocellulose membranes. Membranes were analyzed using the following antibodies from Cell Signaling Technology: phosphorylated NF-κB (Ser536) (93 H1, cat #3033,1:1000), phosphorylated IKB-α (Ser32) (14D4, cat #2859,1:1000), IKB-α (44D4, cat #4812, 1:1000), phosphorylated p38 (Thr180/Tyr182) (cat #9211, 1:1000), p38 (cat #9212, 1:1000). […] Bands were quantitated using ImageQuant (GE Healthcare). […]
# [1] = 500 nM CDDO-EA for 1 hr then 100 ng/ml LPS for 6 hr
compound,measurement,setting,value
"CCNC(=O)[C@]12CCC(C)(C)C[C@H]1C1C(=O)C=C3[C@@]4(C)C=C(C#N)C(=O)C(C)(C)[C@@H]4CC[C@@]3(C)[C@]1(C)CC2 (stereo partly drawn) [CDDO-EA, (4aS,6aR,6bS,8aR,12aS,14bS)-11-cyano-N-ethyl-2,2,6a,6b,9,9,12a-heptamethyl-10,14-dioxo-1,3,4,5,6,6a,6b, 7,8,8a,9,10,12a, 14,14a, 14b-hexadecahydropicene-4a (2H)-carboxamide]","LPS-induced IL-1β, IL-6 and MCP-1 production",THP-1 macrophages; 500 nM CDDO-EA 1 hour then 100 ng/ml LPS 6 hours,"primarily inhibited LPS-induced IL-1B, IL-6 and MCP-1 production; also recorded: blocks LPS induced IL-1β, IL-6, and MCP-1 secretion"
same,IFN-γ,"THP-1 macrophages; 500 nM CDDO-EA alone, no LPS",24.78 ± 20.55 pg/mL
same,IL-1β,"THP-1 macrophages; 500 nM CDDO-EA alone, no LPS",2.19 ± 1.49 pg/mL
same,IL-4,"THP-1 macrophages; 500 nM CDDO-EA alone, no LPS",0.21 ± 0.12 pg/mL
same,IL-6,"THP-1 macrophages; 500 nM CDDO-EA alone, no LPS",0.12 ± 0.02 pg/mL
same,IL-8,"THP-1 macrophages; 500 nM CDDO-EA alone, no LPS",6339.67 ± 1535.18 pg/mL
same,IL-17,"THP-1 macrophages; 500 nM CDDO-EA alone, no LPS",22.72 ± 9.47 pg/mL
same,MCP-1,"THP-1 macrophages; 500 nM CDDO-EA alone, no LPS",2.11 ± 1.35 pg/mL
same,MIP-1β,"THP-1 macrophages; 500 nM CDDO-EA alone, no LPS",3763.83 ± 1229.25 pg/mL
same,TNF-α,"THP-1 macrophages; 500 nM CDDO-EA alone, no LPS",128.33 ± 38.63 pg/mL
same,G-CSF,THP-1 macrophages; [1],10.72 ± 4.71 pg/mL
same,IFN-γ,THP-1 macrophages; [1],114.38 ± 5.43 pg/mL
same,IL-1β,THP-1 macrophages; [1],64.65 ± 17.12 pg/mL
same,IL-2,THP-1 macrophages; [1],4.09 ± 1.51 pg/mL
same,IL-4,THP-1 macrophages; [1],1.55 ± 0.18 pg/mL
same,IL-6,THP-1 macrophages; [1],12.67 ± 5.50 pg/mL
same,IL-8,THP-1 macrophages; [1],9691.33 ± 1268.42 pg/mL
same,IL-12,THP-1 macrophages; [1],2.00 ± 1.00 pg/mL
same,IL-17,THP-1 macrophages; [1],40.16 ± 8.13 pg/mL
same,MCP-1,THP-1 macrophages; [1],11.05 ± 1.65 pg/mL
same,MIP-1β,THP-1 macrophages; [1],11212.50 ± 877.01 pg/mL
same,TNF-α,THP-1 macrophages; [1],8237.33 ± 1137.80 pg/mL
same,LPS-induced IκB-α phosphorylation,IκB-α (Ser32),decreased LPS-induced NF-κB and nuclear factor of kappa light polypeptide gene enhancer in B-cells inhibitor-alpha (IκB) phosphorylation; also recorded: inhibited the LPS-induced phosphorylation of IκB-α; also recorded: inhibits lipopolysaccharide (LPS)-induced NF-κB and Inhibitory kappa B alpha (IκB-α) phosphorylation
